# Legend:
# p21^Cip1 = test: Immunoblotting of p21Cip1 level in T cells; assay type: cell-based, human; conditions: PHA; LAC 10 μM added once at the beginning
# Procedure: (§1) Tonsillar T cells were stimulated with PHA (2 μg/ml) for 16 h, 40 or 64 h in the absence or presence of LAC (10 μM). For the 16 h and 40 h culture, LAC was added once at 0 h. For the 64 h culture, LAC was added once at 40 h. The cell lysates were resolved in 10% SDS-PAGE, and blotted onto PVDF membranes. The membranes were hybridized with rabbit anti-p27^Kip1 antisera (FIG. 9A) or with anti-p21^Cip1 antisera (FIG. 9B) followed by ^125-protein A. The experiments were performed three times, and similar results were obtained. Representative data is shown.
# (§2) In addition to the cyclin levels, the CDK activities are also controlled by several low molecular weight inhibitors. We have examined in this study the effect of the proteasome on the CDK inhibitors p27^Kip1 (Hall et al., 1995, supra) and p21^Cip1 (el-Deiry et al., 1993, Cell 75:817). […] This is in agreement with previous reports (Hengst et al., 1996, Science 271:1861; Nourse et al., 1994, Nature 372:570). […] The blockage was less obvious when assayed at 40 h, probably because the gradual loss of LAC activity during the 40 h culture. […]
# (§3) Immunoblotting was employed to evaluate the levels of Cyclin E, cyclin A, p21^Cip1 and p27^Kip1. […] The cleared lysates were quantitated for protein concentrations. […] The signals on the membrane were detected by [^125I]-protein A followed by autoradiography.
# Bax, Bak and Bad = test: Immunoblotting of Bax, Bak and Bad in Jurkat cells; assay type: cell-based; conditions: lactacystin 6 μM
# Procedure: Jurkat cells were treated with lactacystin (6 μM) for 5 h (lanes 2 and 4 of panel A), 4 h (lane 2 of panel B) or 7 h (lane 3 of panel B), lane 1 in panels A and B is untreated control samples. The cells were separated into mitochondrial (mito in panel A and mitochondria in panel B) and cytosolic (cytosol in panel A) fractions, and the lysate of these two fractions analyzed by immunoblotting using goat anti-Bik, and rabbit anti-Bax, Bak and Bad Ab (all from Santa Cruz Biotech, Santa Cruz, Calif.) followed by enhanced chemiluminescence (ECL, kit from Amersham).
# p27^Kip1 = test: Immunoblotting of p27Kip1 level in T cells; assay type: cell-based, human; conditions: PHA, LAC 10 μM added once at 0 h
# Procedure: as §1, §2, §3
# IL-2 = IL-2 production by PBMC after PHA stimulation; assay type: cell-based, human; conditions: 2 to 4 days after PHA; LAC 10 μM added at the beginning; data not shown
# Procedure: In the four systems of T and B cell activation and proliferation studied in the first section, the growth promoting activity of IL-2 is indirectly (for stimulation by PHA, anti-CD3, and anti-CD28 plus ionomycin), or directly (for SAC plus IL-2) involved. We then investigated the role of proteasome in IL-2Rα expression and IL-2 production. […] Under the experimental condition used, the viability of the LAC-treated cell was reasonable (>80% at 40 h) as described in the previous section as LAC was added only once initially. Moreover, no consistent change of IL-2 production in LAC-treated cells was a functional indication that the cell viability was reasonable and is not of a concern in interpreting the data. The results from this section indicate that IL-2Rα upregulation but not IL-2 production is proteasome-dependent, and the suppressed IL-2Rα expression likely contributes to LAC's inhibitory effect on T cells activation and proliferation. The Proteasome Activity is Critically Required Between G0 and G1/S Boundary in T Cells
# [1] = test system: mouse peritoneal exudate macrophages; test: LPS-induced nitric oxide production by macrophages (nitrite, Griess reagent); assay type: cell-based; conditions: 2 μg/ml LPS; lactacystin at different concentrations
# Procedure: Nitric oxide production by the macrophages was measured according to the […] concentrations in the supernatants.
# BALB/c mice were injected i.p. with 3 ml of 3% thioglycollate broth. Three days later, peritoneal exudate macrophages of the mice were harvested and washed at 170 g for 10 min at 4° C. The macrophages were cultured in Teflon vials (2 cm in diameter) at 4×10^6/2 ml with various reagents (LPS, 2 μg/ml; IFNγ, 100 u/ml; LAC, 0.62-5 μM for the nitric oxide assay and 5 μM for the Northern blot assay).
# The nitrite concentration in the culture supernatant was measured as a way to indirectly reflect the nitric oxide level following a method described by Ding et al (Ding et al., 1988, J. Immunology 141:2407). Release of reactive nitrogen intermediates and reactive oxygen intermediates form mouse peritoneal macrophages: comparison of activation cytokines and evidence for independent production. Briefly, 100 μl of supernatants collected from 48 h macrophage cultures was incubated with an equal volume of the Griess reagent (1% sulfanimide/0.1% naphthylethylene diamine dihydrochloride/2.5% H3PO4) at room temperature for 10 min in 96-well microtitration plates, the O.D. was measured at 550 nm. Sodium nitrite of various concentrations were used to construct standard curves.
compound,measurement,setting,value
"CC(=O)N[C@@H](CSC(=O)[C@]1([C@@H](O)C(C)C)NC(=O)[C@H](C)[C@@H]1O)C(=O)O [LAC, lactacystin]",upregulation of p21Cip1 in the G1 phase,p21^Cip1,strongly suppressed the upregulation
same,"amounts of Bax, Bak and Bad","Bax, Bak and Bad",does not appear to have altered
same,decrease (degradation) of p27Kip1,p27^Kip1; assayed at 16 h,significantly blocked the decrease
same,blockage of p27Kip1 decrease,p27^Kip1; assayed at 40 h,less obvious
same,IL-2 production,IL-2,no consistent difference was found
same,LPS-induced NO production,[1],effectively repress

# Reference: patent publication US20020049157A1, “Use of proteasome inhibitors for treating cancer, inflammation, autoimmune disease, graft rejection and septic shock” (priority 1998, published 2002)
